# US20240000791A1, “Methods of Using 4-Amino-N-[4-(Methoxymethyl)Phenyl]-7-(1-Methylcyclopropyl)-6-(3-Morpholinoprop-1-YN-1-YL)-7H-Pyrrolo[2,3-D]Pyrimidine-5-Carboxamide for the Treatment of Tumors” (Helsinn Healthcare SA, priority 2020, published 2024)
# Read-outs that look alike come from different tables or passages of the source.
# Assays:
# [1] = test system: Ba/F3 KIF5B-RET^G810R cells; experiment: Ba/F3 KIF5B-RET G810R subcutaneous tumor model, first study; format: in vivo, mouse; conditions: 14 days; for tumor regrowth at the end of the study: 30 mg/kg bid oral
# [2] = target: T1, JAK3 (Homo sapiens, UniProt P52333); experiment: Kinase inhibition; format: biochemical
# T1 sequence (P52333 1-1124): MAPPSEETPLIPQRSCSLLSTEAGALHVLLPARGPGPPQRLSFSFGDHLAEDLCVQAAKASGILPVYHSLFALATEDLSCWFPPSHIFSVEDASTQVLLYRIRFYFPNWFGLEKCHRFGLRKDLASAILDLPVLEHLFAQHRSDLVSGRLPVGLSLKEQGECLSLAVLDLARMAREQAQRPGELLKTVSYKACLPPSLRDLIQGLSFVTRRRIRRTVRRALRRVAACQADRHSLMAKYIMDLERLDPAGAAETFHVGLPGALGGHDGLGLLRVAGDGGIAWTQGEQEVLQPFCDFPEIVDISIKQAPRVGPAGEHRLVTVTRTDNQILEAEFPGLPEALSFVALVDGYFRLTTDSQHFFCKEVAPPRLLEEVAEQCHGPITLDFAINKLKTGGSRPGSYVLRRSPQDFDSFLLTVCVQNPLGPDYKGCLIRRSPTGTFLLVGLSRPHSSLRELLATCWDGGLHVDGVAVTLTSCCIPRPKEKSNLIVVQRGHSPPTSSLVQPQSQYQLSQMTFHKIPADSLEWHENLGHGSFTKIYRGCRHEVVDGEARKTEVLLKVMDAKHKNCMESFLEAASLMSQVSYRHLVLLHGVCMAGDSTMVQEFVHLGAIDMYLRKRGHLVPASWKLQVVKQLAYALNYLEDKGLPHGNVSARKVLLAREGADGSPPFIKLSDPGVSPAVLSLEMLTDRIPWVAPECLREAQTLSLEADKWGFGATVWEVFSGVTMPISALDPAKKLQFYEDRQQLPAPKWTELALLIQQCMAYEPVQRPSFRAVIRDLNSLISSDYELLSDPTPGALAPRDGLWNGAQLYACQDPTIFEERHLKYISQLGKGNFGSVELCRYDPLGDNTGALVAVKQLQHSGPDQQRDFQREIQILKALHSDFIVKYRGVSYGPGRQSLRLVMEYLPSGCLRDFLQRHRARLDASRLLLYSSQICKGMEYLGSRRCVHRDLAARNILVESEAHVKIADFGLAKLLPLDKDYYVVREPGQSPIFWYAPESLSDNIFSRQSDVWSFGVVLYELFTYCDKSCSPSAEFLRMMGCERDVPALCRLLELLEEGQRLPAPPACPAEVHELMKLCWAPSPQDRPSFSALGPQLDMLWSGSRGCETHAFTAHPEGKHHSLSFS
# [3] = target: JAK2 (Homo sapiens, UniProt O60674); experiment: Kinase inhibition; format: biochemical
# [4] = test system: Ba/F3 KIF5B-RET V804M; experiment: Cell viability CellTiter-Glo 2.0; format: cell-based; conditions: Mus musculus, read-out: GI50 values
# [5] = target: PDGFRβ (Homo sapiens, UniProt P09619); experiment: Kinase inhibition; format: biochemical
# [6] = target: JAK1 (Homo sapiens, UniProt P23458); experiment: Kinase inhibition; format: biochemical
# [7] = target: T2, FLT3 (Homo sapiens, UniProt P36888); experiment: Kinase inhibition; format: biochemical
# T2 sequence (P36888 27-993): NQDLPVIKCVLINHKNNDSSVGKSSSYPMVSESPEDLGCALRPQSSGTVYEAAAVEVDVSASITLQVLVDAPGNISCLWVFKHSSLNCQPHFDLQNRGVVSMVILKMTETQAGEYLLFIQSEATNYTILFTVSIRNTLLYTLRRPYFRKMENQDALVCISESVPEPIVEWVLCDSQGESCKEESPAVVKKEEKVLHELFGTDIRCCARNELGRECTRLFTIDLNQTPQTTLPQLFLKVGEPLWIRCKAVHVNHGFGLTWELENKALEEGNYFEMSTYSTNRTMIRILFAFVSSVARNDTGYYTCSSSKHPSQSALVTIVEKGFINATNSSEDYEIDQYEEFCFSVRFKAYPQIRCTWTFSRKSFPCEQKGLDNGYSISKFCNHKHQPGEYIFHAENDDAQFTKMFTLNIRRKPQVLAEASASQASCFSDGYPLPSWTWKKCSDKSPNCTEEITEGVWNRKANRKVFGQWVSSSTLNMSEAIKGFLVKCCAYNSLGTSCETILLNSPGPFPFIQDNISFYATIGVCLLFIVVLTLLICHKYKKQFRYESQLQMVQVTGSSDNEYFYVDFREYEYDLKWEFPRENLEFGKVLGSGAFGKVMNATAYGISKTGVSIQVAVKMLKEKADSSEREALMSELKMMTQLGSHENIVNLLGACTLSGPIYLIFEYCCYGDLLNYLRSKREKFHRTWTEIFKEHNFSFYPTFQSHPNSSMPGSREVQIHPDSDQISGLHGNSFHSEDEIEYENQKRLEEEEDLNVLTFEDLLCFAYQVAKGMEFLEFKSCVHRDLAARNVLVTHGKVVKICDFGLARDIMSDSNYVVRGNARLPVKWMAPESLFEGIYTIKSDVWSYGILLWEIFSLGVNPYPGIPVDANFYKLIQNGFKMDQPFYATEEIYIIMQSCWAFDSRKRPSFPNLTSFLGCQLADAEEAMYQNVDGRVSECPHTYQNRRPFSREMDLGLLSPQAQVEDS
# [8] = read-out: IC50 kinase inhibition, JAK3
# [9] = read-out: IC50 kinase inhibition, JAK2
# [10] = read-out: IC50 kinase inhibition, PDGFRβ
# [11] = read-out: IC50 kinase inhibition, JAK1
# [12] = read-out: IC50 kinase inhibition, FLT3
# JAK1, sequence (P23458 whole entry): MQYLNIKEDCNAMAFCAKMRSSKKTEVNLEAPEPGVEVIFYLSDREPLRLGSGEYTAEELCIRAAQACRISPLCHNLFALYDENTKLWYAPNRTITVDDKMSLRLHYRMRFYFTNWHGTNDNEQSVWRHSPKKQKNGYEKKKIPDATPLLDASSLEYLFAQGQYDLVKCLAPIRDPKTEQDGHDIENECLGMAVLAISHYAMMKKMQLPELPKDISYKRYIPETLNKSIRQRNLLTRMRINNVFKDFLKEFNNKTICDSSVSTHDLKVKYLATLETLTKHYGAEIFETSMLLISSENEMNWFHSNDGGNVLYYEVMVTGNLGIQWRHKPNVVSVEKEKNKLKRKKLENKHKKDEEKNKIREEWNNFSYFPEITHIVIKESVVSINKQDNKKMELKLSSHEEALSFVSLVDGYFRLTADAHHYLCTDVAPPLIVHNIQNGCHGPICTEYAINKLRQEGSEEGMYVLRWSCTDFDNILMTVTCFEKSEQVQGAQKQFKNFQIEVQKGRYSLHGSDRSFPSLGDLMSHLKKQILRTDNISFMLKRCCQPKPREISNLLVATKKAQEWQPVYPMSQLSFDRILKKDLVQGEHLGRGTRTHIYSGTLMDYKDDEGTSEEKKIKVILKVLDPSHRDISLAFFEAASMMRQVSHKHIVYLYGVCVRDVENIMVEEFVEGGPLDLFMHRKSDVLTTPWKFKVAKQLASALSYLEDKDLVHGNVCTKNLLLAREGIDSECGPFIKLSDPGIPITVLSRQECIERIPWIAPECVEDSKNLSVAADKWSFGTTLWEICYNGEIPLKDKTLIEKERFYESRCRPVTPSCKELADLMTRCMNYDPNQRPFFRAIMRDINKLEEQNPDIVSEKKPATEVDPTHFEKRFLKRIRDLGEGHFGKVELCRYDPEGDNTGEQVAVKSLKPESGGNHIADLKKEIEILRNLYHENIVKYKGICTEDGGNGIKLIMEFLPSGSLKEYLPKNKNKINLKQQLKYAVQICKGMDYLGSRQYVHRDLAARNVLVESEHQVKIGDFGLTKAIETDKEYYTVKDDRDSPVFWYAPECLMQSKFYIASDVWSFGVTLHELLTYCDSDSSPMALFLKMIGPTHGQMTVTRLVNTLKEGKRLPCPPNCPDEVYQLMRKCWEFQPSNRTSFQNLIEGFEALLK
# PDGFRβ, sequence (P09619 33-1106): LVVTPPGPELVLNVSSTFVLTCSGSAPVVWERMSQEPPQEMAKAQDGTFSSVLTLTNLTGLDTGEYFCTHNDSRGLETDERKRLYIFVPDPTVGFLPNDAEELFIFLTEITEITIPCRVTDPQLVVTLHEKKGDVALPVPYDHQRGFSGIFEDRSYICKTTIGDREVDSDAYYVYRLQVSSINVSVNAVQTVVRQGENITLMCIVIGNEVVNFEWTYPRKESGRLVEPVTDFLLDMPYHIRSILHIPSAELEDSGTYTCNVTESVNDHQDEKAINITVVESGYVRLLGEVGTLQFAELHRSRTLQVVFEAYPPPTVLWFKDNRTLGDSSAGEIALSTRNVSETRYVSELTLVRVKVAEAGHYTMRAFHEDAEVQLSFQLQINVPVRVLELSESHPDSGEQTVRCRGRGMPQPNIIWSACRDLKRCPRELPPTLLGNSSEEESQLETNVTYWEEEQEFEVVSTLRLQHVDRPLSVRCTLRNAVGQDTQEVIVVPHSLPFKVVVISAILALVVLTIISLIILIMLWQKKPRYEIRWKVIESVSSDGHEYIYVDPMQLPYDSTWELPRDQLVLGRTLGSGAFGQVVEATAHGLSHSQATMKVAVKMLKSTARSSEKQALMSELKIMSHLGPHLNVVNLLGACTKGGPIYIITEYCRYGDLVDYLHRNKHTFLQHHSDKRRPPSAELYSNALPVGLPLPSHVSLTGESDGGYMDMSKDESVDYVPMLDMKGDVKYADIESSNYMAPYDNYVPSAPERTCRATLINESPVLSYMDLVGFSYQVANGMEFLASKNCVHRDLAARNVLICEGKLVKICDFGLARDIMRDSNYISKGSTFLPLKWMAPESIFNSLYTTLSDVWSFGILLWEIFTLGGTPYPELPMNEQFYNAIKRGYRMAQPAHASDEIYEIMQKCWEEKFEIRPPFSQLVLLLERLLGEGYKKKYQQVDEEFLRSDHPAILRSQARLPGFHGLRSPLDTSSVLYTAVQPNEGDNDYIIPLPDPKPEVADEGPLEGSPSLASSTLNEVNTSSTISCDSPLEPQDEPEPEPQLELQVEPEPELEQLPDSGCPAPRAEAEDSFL
# JAK2, sequence (O60674 whole entry): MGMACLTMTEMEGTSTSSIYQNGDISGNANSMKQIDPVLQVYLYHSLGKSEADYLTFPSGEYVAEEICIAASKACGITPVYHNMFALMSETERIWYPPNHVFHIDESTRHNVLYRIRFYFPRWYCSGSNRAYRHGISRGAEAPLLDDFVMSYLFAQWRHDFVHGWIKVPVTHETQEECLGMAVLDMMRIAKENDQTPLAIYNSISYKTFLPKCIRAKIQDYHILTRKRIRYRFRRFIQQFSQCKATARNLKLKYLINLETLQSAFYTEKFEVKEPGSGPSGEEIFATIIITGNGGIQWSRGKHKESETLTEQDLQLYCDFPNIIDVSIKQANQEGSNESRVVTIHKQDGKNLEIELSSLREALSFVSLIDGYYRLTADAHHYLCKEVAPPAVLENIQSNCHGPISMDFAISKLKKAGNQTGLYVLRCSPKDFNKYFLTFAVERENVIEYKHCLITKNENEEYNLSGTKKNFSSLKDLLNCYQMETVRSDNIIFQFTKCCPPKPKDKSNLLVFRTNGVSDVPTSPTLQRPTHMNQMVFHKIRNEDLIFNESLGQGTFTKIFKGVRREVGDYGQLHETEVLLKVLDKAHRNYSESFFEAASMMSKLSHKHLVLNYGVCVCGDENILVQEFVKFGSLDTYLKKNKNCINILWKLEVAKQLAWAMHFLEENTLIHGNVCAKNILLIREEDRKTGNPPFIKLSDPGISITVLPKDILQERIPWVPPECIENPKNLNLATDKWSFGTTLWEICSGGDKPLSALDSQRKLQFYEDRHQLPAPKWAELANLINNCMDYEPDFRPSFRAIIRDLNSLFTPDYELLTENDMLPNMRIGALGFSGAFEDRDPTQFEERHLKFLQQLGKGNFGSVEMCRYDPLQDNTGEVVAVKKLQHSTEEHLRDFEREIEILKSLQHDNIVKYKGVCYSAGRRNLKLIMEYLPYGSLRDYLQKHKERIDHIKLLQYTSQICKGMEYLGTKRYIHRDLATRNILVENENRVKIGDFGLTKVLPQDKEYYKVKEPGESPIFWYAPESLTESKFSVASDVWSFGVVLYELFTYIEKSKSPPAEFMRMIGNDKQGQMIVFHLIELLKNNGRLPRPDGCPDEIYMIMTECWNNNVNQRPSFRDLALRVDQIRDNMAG
Structure (SMILES),tumor regrowth at the end of the study [1],"IC50 [2, 8] [nM]","IC50 [3, 9] [nM]","GI50 ([4]; BaF3, Ba/F3 KIF5B-RET V804M, 72 hours, mean±SD of three experiments) [nM]","IC50 [5, 10] [nM]","IC50 [6, 11] [nM]","IC50 [7, 12] [nM]",tumor volume at the end of the study vs control ([1]; 10 mg/kg bid oral),IC50 [2] [nM],IC50 [3] [nM],"GI50 ([4]; BaF3, 72 h) [nM]",IC50 [5] [nM],IC50 [6] [nM],IC50 [7] [nM]
"CO[C@]1(C(=O)N[C@@H](C)c2ccc(-n3cc(F)cn3)nc2)CC[C@H](c2nc(C)cc(Nc3cc(C)[nH]n3)n2)CC1 [BLU-667, pralsetinib]",trend to tumor regrowth,6.1,1.1,8.6 ± 0.58,7.7,2.6,11,,,,,,,
"COCc1ccc(NC(=O)c2c(C#CCN3CCOCC3)n(C3(C)CC3)c3ncnc(N)c23)cc1 [HM06/TAS0953, 4-amino-N-(4-(methoxymethyl)phenyl)-7-(1-methylcyclopropyl)-6-(3-morpholinoprop-1-yn-1-yl)-7H-pyrrolo[2,3-d]pyrimidine-5-carboxamide]",did not show tumor regrowth,,,,,,,significantly decreased tumor volume,> 3000,> 3000,39.7 ± 4.6,2760,> 3000,911
"COc1ccc(CN2C3CC2CN(c2ccc(-c4cc(OCC(C)(C)O)cn5ncc(C#N)c45)cn2)C3)cn1 [LOXO-292, selpercatinib]",trend to tumor regrowth,2840,> 3000,,67,> 3000,22,,,,33.3 ± 2.9,,,
